Organism: Rattus norvegicus
Assay: DrugMatrix - Regimen: Daily Repeat
Assay type: toxicity, organism-based, Sprague-Dawley
Parameters: regimen Daily Repeat, gender Male, age 6-8 weeks
Conditions: in vivo, po, route oral GAVAGE, vehicle 100 % SALINE; for ABSOLUTE BASOPHIL / ABSOLUTE EOSINOPHIL / ABSOLUTE LYMPHOCYTE / ABSOLUTE MONOCYTE / ABSOLUTE SEGMENTED NEUTROPHIL / BASOPHIL / EOSINOPHIL / ERYTHROCYTE COUNT / HEMATOCRIT / HEMOGLOBIN / LEUKOCYTE COUNT / LYMPHOCYTE / MEAN CORPUSCULAR HEMOGLOBIN / MEAN CORPUSCULAR HEMOGLOBIN CONCENTRATION / MEAN CORPUSCULAR VOLUME / MONOCYTE / NEUTROPHIL / NUCLEATED RED BLOOD CELLS / PLATELET COUNT: tissue Blood; for ALANINE AMINOTRANSFERASE / ALBUMIN / ALKALINE PHOSPHATASE / ASPARTATE AMINOTRANSFERASE / BLOOD UREA NITROGEN / CARBON DIOXIDE / CHLORIDE / CHOLESTEROL / CREATINE PHOSPHOKINASE / CREATININE / GLUCOSE / LACTATE DEHYDROGENASE / LIPASE / PHOSPHORUS / POTASSIUM / SODIUM / TOTAL BILIRUBIN / TOTAL PROTEIN / URIC ACID: tissue Plasma
[1] = 0 mg/kg, 72 h, dose level Control, time 3 day
[2] = 0 mg/kg, […], dose level Control, time 7 day
[3] = 10 mg/kg, 72 h, dose level Low, time 3 day

O=[As][O-].[Na+] [SODIUM ARSENITE]
ABSOLUTE BASOPHIL [1]: 0 CELLS/uL
ABSOLUTE EOSINOPHIL [1]: 66 CELLS/uL
ABSOLUTE LYMPHOCYTE [1]: 11922.83 CELLS/uL
ABSOLUTE MONOCYTE [1]: 401.5 CELLS/uL
ABSOLUTE SEGMENTED NEUTROPHIL [1]: 1526.33 CELLS/uL
BASOPHIL [1]: 0%
EOSINOPHIL [1]: 0.5%
ERYTHROCYTE COUNT [1]: 5.62 x10E6/uL
HEMATOCRIT [1]: 37.17%
HEMOGLOBIN [1]: 13.53 G/DL
LEUKOCYTE COUNT [1]: 13.92 x10E3/uL
LYMPHOCYTE [1]: 86.17%
MEAN CORPUSCULAR HEMOGLOBIN [1]: 24.07 pg
MEAN CORPUSCULAR HEMOGLOBIN CONCENTRATION [1]: 36.42 G/DL
MEAN CORPUSCULAR VOLUME [1]: 66.1 fL
MONOCYTE [1]: 3%
NEUTROPHIL [1]: 10.33%
NUCLEATED RED BLOOD CELLS [1]: 0 /100WBC
PLATELET COUNT [1]: 1107 x10E3/uL
ALANINE AMINOTRANSFERASE [1]: 45.33 u/L
ALBUMIN [1]: 4.3 G/DL
ALKALINE PHOSPHATASE [1]: 321.33 u/L
ASPARTATE AMINOTRANSFERASE [1]: 77.33 u/L
BLOOD UREA NITROGEN [1]: 14.33 mg/dL
CARBON DIOXIDE [1]: 32.33 mmol/L
CHLORIDE [1]: 99.67 MEQ/L
CHOLESTEROL [1]: 82.33 mg/dL
CREATINE PHOSPHOKINASE [1]: 205.5 u/L
CREATININE [1]: 0.19 mg/dL
GLUCOSE [1]: 150.83 mg/dL
LACTATE DEHYDROGENASE [1]: 88.17 u/L
LIPASE [1]: 10.83 u/L
PHOSPHORUS [1]: 10.9 mg/dL
POTASSIUM [1]: 5.83 MEQ/L
SODIUM [1]: 145.15 MEQ/L
TOTAL BILIRUBIN [1]: 0.12 mg/dL
TOTAL PROTEIN [1]: 6.22 G/DL
URIC ACID [1]: 1 mg/dL
ABSOLUTE BASOPHIL [2]: 0 CELLS/uL
ABSOLUTE EOSINOPHIL [2]: 22 CELLS/uL
ABSOLUTE LYMPHOCYTE [2]: 11105.17 CELLS/uL
ABSOLUTE MONOCYTE [2]: 258.17 CELLS/uL
ABSOLUTE SEGMENTED NEUTROPHIL [2]: 881.33 CELLS/uL
BASOPHIL [2]: 0%
EOSINOPHIL [2]: 0.17%
ERYTHROCYTE COUNT [2]: 5.29 x10E6/uL
HEMATOCRIT [2]: 34.03%
HEMOGLOBIN [2]: 13.67 G/DL
LEUKOCYTE COUNT [2]: 12.27 x10E3/uL
LYMPHOCYTE [2]: 90.83%
MEAN CORPUSCULAR HEMOGLOBIN [2]: 25.9 pg
MEAN CORPUSCULAR HEMOGLOBIN CONCENTRATION [2]: 40.18 G/DL
MEAN CORPUSCULAR VOLUME [2]: 64.42 fL
MONOCYTE [2]: 2.17%
NEUTROPHIL [2]: 6.83%
NUCLEATED RED BLOOD CELLS [2]: 0 /100WBC
PLATELET COUNT [2]: 1159.83 x10E3/uL
ALANINE AMINOTRANSFERASE [2]: 45.83 u/L
ALBUMIN [2]: 4.1 G/DL
ALKALINE PHOSPHATASE [2]: 240 u/L
ASPARTATE AMINOTRANSFERASE [2]: 88.67 u/L
BLOOD UREA NITROGEN [2]: 13.67 mg/dL
CARBON DIOXIDE [2]: 31.83 mmol/L
CHLORIDE [2]: 96.83 MEQ/L
CHOLESTEROL [2]: 71.17 mg/dL
CREATINE PHOSPHOKINASE [2]: 202.5 u/L
CREATININE [2]: 0.22 mg/dL
GLUCOSE [2]: 132.67 mg/dL
LACTATE DEHYDROGENASE [2]: 107.17 u/L
LIPASE [2]: 10.5 u/L
PHOSPHORUS [2]: 10.47 mg/dL
POTASSIUM [2]: 6.23 MEQ/L
SODIUM [2]: 140.73 MEQ/L
TOTAL BILIRUBIN [2]: 0.12 mg/dL
TOTAL PROTEIN [2]: 6.18 G/DL
URIC ACID [2]: 0.87 mg/dL
ABSOLUTE BASOPHIL [3]: 0 CELLS/uL
ABSOLUTE EOSINOPHIL [3]: 54.67 CELLS/uL
ABSOLUTE LYMPHOCYTE [3]: 10489.83 CELLS/uL
ABSOLUTE MONOCYTE [3]: 135 CELLS/uL
ABSOLUTE SEGMENTED NEUTROPHIL [3]: 1470.5 CELLS/uL
BASOPHIL [3]: 0%
EOSINOPHIL [3]: 0.5%
ERYTHROCYTE COUNT [3]: 5.25 x10E6/uL
HEMATOCRIT [3]: 34.42%
HEMOGLOBIN [3]: 12.32 G/DL
LEUKOCYTE COUNT [3]: 12.15 x10E3/uL
LYMPHOCYTE [3]: 86.33%
MEAN CORPUSCULAR HEMOGLOBIN [3]: 23.48 pg
MEAN CORPUSCULAR HEMOGLOBIN CONCENTRATION [3]: 35.82 G/DL
MEAN CORPUSCULAR VOLUME [3]: 65.58 fL
MONOCYTE [3]: 1.17%
NEUTROPHIL [3]: 12%
NUCLEATED RED BLOOD CELLS [3]: 0.17 /100WBC
PLATELET COUNT [3]: 1089.17 x10E3/uL
ALANINE AMINOTRANSFERASE [3]: 43.5 u/L
ALBUMIN [3]: 4.08 G/DL
ALKALINE PHOSPHATASE [3]: 226.5 u/L
ASPARTATE AMINOTRANSFERASE [3]: 76.83 u/L
BLOOD UREA NITROGEN [3]: 10.5 mg/dL
CARBON DIOXIDE [3]: 25.83 mmol/L
CHLORIDE [3]: 100.17 MEQ/L
CHOLESTEROL [3]: 72 mg/dL
CREATINE PHOSPHOKINASE [3]: 296.17 u/L
CREATININE [3]: 0.2 mg/dL
GLUCOSE [3]: 151.5 mg/dL
LACTATE DEHYDROGENASE [3]: 177.33 u/L
LIPASE [3]: 10.33 u/L
PHOSPHORUS [3]: 11.43 mg/dL
POTASSIUM [3]: 5.33 MEQ/L
SODIUM [3]: 142.73 MEQ/L
TOTAL BILIRUBIN [3]: 0.15 mg/dL
TOTAL PROTEIN [3]: 5.93 G/DL
URIC ACID [3]: 1 mg/dL

— ChEMBL document CHEMBL3885881, “DrugMatrix”
